These results are taken from ChEMBL document CHEMBL3407472, “Multi-parameter optimization of aza-follow-ups to BI 207524, a thumb pocket 1 HCV NS5B polymerase inhibitor. Part 2: Impact of lipophilicity on promiscuity and in vivo toxicity” (Bioorg Med Chem Lett, 2015).

A short description of data set [1]: Half life in rat liver microsomes at 2 uM. The data set is classed as ADME. (In general: Microsomes from liver hold many membrane-bound enzymes, among them those of drug oxidation.)
The nature of data set [2]: Lipophilicity, log D of the compound at pH 7.4. The following applies: buffer. The data set is classed as physicochemical.
In data set [3] the test system is Hepatitis C virus. As to the kind of experiment: Antiviral activity against Hepatitis C virus genotype 1b infected in human Huh cells assessed as inhibition of viral replication by RT-PCR-based replicon assay. In kind it is functional, cell-based, Hepacivirus hominis. A general note: In antiviral work, replicon cells carry a viral genome segment that copies itself.

Data set [4] can be described thus: Half life in human liver microsomes at 2 uM. The data set is classed as ADME.
Data set [5] in a line: Lipophilicity, log D of the compound. The data set is classed as physicochemical. The following applies: octanol/water.
For data set [6], the system named is Hepatitis C virus. As to the kind of experiment: Antiviral activity against Hepatitis C virus genotype 1a infected in human Huh cells assessed as inhibition of viral replication by RT-PCR-based replicon assay. In kind it is functional, cell-based, Hepacivirus hominis. The following applies: subtype 1a.
Data set [7] can be described thus: Permeability from apical to basolateral side of human Caco2 cells. The data set is classed as ADME, cell-based. The following applies: Caco-2, read-out: permeability.
Data set [8] in a line: Plasma concentration in rat at 2 mg/kg, po each in 0.5% Methylcellulose and 0.3% Tween-80 and 1% N-methylpyrrolidone after 2 hrs. In kind it is ADME, organism-based. Also on record: dose 2 mg/kg, route oral.
Data set [9] can be described thus: Plasma concentration in rat at 2 mg/kg, po each in 0.5% Methylcellulose and 0.3% Tween-80 and 1% N-methylpyrrolidone after 1 hr. In kind it is ADME, organism-based. Also on record: dose 2 mg/kg, route oral.
Data set [10] in a line: Cmax in rat at 2 mg/kg, po each in 0.5% Methylcellulose and 0.3% Tween-80 and 1% N-methylpyrrolidone. The data set is classed as ADME, organism-based. On the set-up: dose 2 mg/kg, route oral. The following applies: in vivo.

Usually half-life stands for the time needed for the level to fall by half in the phase considered. Read a low half-life as fast loss. The logD is the decadic logarithm of the distribution of all forms, ionised or not, between an organic phase and buffer at a given pH. By EC50 is commonly meant the concentration needed to bring the measured effect to its halfway point. Broadly, the Cmax is the peak of the concentration-time curve.

As to `COc1nc(NC(=O)C2(NC(=O)c3ccc4c(C5CCCC5)c(-c5ccccn5)n(C)c4c3)CCC2)ccc1/C=C/C(=O)O`, the half-life at 2 µM amounted to 0.167 h in data set [1] and 1.27 h in [4]. For the same compound, the logD in data set [2] and in [5] was 3.5 each time. In the data set on Hepatitis C virus [3], the EC50 is 15 nM.

`COc1nc(NC(=O)C(C)(C)NC(=O)c2ccc3c(C4CCCC4)c(-c4ccc(F)cn4)n(C)c3c2)ccc1/C=C/C(=O)O`: the logD in data set [2] turned out to be 3.3. Also, the EC50 worked out at 67 nM in the data set with Hepatitis C virus [6] and 12 nM in the data set with Hepatitis C virus [3].

In [2], `COc1nc(NC(=O)C2(NC(=O)c3ccc4c(C5CCCC5)c(-c5ncc(Cl)cn5)n(C)c4c3)CCC2)ccc1/C=C/C(=O)O` displayed a pH-dependent lipophilicity (logD) of 3.7. Also, the EC50 with Hepatitis C virus [6] was found to be 62 nM; in the data set on Hepatitis C virus [3] it was 9 nM.

Consider `CCOc1nc(NC(=O)C2(NC(=O)c3ccc4c(C5CCCC5)c(-c5cnccn5)n(C)c4c3)CCC2)ccc1/C=C/C(=O)O`, for which the Papp A→B in data set [7] worked out at 13 ×10⁻⁶ cm/s. The logD in data set [2] was determined as 3.6. For the same compound, the EC50 in the data set with Hepatitis C virus [3] turned out to be 8 nM. In data set [4], this compound returned a half-life at 2 µM of 0.55 h.

As to `COc1nc(NC(=O)C2(NC(=O)c3ccc4c(c3)c(C)c(-c3ccc(F)cn3)n4C3CCCCC3)CCC2)ccc1/C=C/C(=O)O`, in data set [2], the pH-dependent lipophilicity (logD) turned out to be 4.2. In addition, the results for the EC50 in the data set on Hepatitis C virus [6] and in the data set with Hepatitis C virus [3] were 52 nM and 10 nM, respectively.

Regarding `CCOc1nc(NC(=O)C(C)(C)NC(=O)c2ccc3c(c2)c(C)c(-c2ccc(F)cn2)n3C2CCCCC2)cnc1/C=C/C(=O)O`, the concentration at 2 h in [8] is 100 nM. In addition, the half-life at 2 µM in [1] is 1.28 h; in [4] it was 1.57 h. Moreover, the EC50 with Hepatitis C virus [3] amounted to 12 nM. This compound also displayed a concentration at 1 h in data set [9] of 300 nM.

In [8], `CCOc1nc(NC(=O)C2(NC(=O)c3ccc4c(C5CCCC5)c(-c5cnccn5)n(C)c4c3)CCCC2)cnc1/C=C/C(=O)O` displayed a concentration at 2 h of 100 nM. Further, the half-life at 2 µM was over 5 h in data set [1] and 1.33 h in [4]. The logD in data set [2] and in data set [5] was 3.2 each time. The EC50 stood at 13 nM in the data set with Hepatitis C virus [6] and 5 nM in the data set with Hepatitis C virus [3]. For the same compound, the concentration at 1 h in data set [9] came out at 400 nM.

Regarding `COc1nc(NC(=O)C2(NC(=O)c3ccc4c(c3)c(C)c(-c3ccc(F)cn3)n4C3CCCCC3)CCC2)cnc1/C=C/C(=O)O`, the logD in [2] was determined as 3.3. For the same compound, the figures for the EC50 with Hepatitis C virus [6] and in the data set on Hepatitis C virus [3] were 310 nM and 17 nM, respectively.

Take `CCOc1nc(NC(=O)C2(NC(=O)c3ccc4c(C5CCCC5)c(-c5cncnc5)n(C)c4c3)CCC2)ccc1/C=C/C(=O)O`: in [7], the Papp A→B came out at 17 ×10⁻⁶ cm/s. The logD in data set [2] was determined as 3.4. The EC50 in the data set with Hepatitis C virus [3] amounted to 15 nM. In data set [4], the half-life at 2 µM turned out to be 1.02 h.

On to `COc1nc(NC(=O)C(C)(C)NC(=O)c2ccc3c(C4CCCC4)c(-c4cncnc4)n(C)c3c2)ccc1/C=C/C(=O)O`, for which, in [2], the logD was found to be 2.2. For the same compound, the EC50 in the data set on Hepatitis C virus [6] came out at 72 nM; in the data set on Hepatitis C virus [3] it was 23 nM.

`CCOc1nc(NC(=O)C(C)(C)NC(=O)c2ccc3c(C4CCCC4)c(-c4ccc(Cl)cn4)n(C)c3c2)ccc1/C=C/C(=O)O`: the logD in data set [2] came out at 4.4. The EC50 in the data set with Hepatitis C virus [6] stood at 9 nM; in the data set on Hepatitis C virus [3] it was 5 nM.

Turning to `CCOc1nc(NC(=O)C2(NC(=O)c3ccc4c(C5CCCC5)c(-c5ccccn5)n(C)c4c3)CCC2)ccc1/C=C/C(=O)O`, the Papp A→B in data set [7] is 21 ×10⁻⁶ cm/s. Also, in [2], the log distribution coefficient (logD) is 4.4. Moreover, in the data set with Hepatitis C virus [3], the EC50 was found to be 11 nM. This compound also yielded a half-life at 2 µM in data set [4] of 0.667 h.

On to `CCOc1nc(NC(=O)C(C)(C)NC(=O)c2ccc3c(C4CCCC4)c(-c4ncc(Br)cn4)n(C)c3c2)ccc1/C=C/C(=O)O`, for which the logD in [2] was over 4.7. Moreover, the EC50 was determined as 8 nM in the data set on Hepatitis C virus [6] and 5 nM with Hepatitis C virus [3].

Regarding `CCOc1nc(NC(=O)C2(NC(=O)c3ccc4c(c3)c(C)c(-c3ccc(F)cn3)n4C3CCCCC3)CCC2)cnc1/C=C/C(=O)O`, the logD in data set [2] is 3.1. Also, the figures for the EC50 with Hepatitis C virus [6] and in the data set with Hepatitis C virus [3] were 63 nM and 12 nM, respectively.

The compound `CCOc1nc(NC(=O)C(C)(C)NC(=O)c2ccc3c(c2)c(C)c(-c2ccc(F)cn2)n3C2CCCCC2)ccc1/C=C/C(=O)O` came in with a logD in [2] of 3.9. Besides, the EC50 with Hepatitis C virus [6] is 14 nM; in the data set on Hepatitis C virus [3], 3 nM.

Compound `COc1nc(NC(=O)C2(NC(=O)c3ccc4c(c3)c(C)c(-c3ccc(F)cn3)n4C3CCCCC3)CCCC2)cnc1/C=C/C(=O)O` yielded a logD in data set [2] of 3.2. Moreover, the EC50 is 54 nM with Hepatitis C virus [6] and 14 nM with Hepatitis C virus [3].

Compound `CCOc1nc(NC(=O)C2(NC(=O)c3ccc4c(C5CCCC5)c(-c5ncc(Cl)cn5)n(C)c4c3)CCCC2)cnc1/C=C/C(=O)O` showed a logD in data set [2] of 4.3. In addition, the half-maximal effective concentration (EC50) came to 27 nM with Hepatitis C virus [6] and 6 nM with Hepatitis C virus [3].

`COc1nc(NC(=O)C(C)(C)NC(=O)c2ccc3c(C4CCCC4)c(-c4ncc(Cl)cn4)n(C)c3c2)cnc1/C=C/C(=O)O`: the logD in data set [2] came out at 2.6. The EC50 in the data set on Hepatitis C virus [6] was 270 nM; in the data set on Hepatitis C virus [3] it was 17 nM.

Compound `CCOc1nc(NC(=O)C(C)(C)NC(=O)c2ccc3c(C4CCCC4)c(-c4ncc(Br)cn4)n(C)c3c2)cnc1/C=C/C(=O)O` gave a logD in data set [2] of 3.4. Also, the results for the EC50 in the data set on Hepatitis C virus [6] and with Hepatitis C virus [3] were 67 nM and 14 nM, respectively.

`CCOc1nc(NC(=O)C(C)(C)NC(=O)c2ccc3c(C4CCCC4)c(-c4cncnc4)n(C)c3c2)ccc1/C=C/C(=O)O` returned a concentration at 2 h in [8] of 100 nM. Further, the half-life at 2 µM in [1] came out at 1.27 h; in [4], 1.15 h. The logD in data set [2] and in data set [5] was 3 each time. The EC50 in the data set on Hepatitis C virus [3] was 12 nM. This compound came in with a concentration at 1 h in data set [9] of 200 nM.

For the compound `COc1nc(NC(=O)C2(NC(=O)c3ccc4c(C5CCCC5)c(-c5ccc(F)cn5)n(C)c4c3)CCC2)ccc1/C=C/C(=O)O`, in data set [2], the logD was determined as 4. The values for the EC50 in the data set on Hepatitis C virus [6] and with Hepatitis C virus [3] were 68 nM and 12 nM, respectively.

For the compound `COc1nc(NC(=O)C2(NC(=O)c3ccc4c(C5CCCC5)c(-c5cnccn5)n(C)c4c3)CCC2)ccc1/C=C/C(=O)O`, the logD in data set [2] was found to be 3.3. Moreover, the EC50 in the data set with Hepatitis C virus [6] was 46 nM; in the data set with Hepatitis C virus [3], 13 nM.

Turning to `CCOc1nc(NC(=O)C2(NC(=O)c3ccc4c(C5CCCC5)c(-c5ccc(Cl)cn5)n(C)c4c3)CCC2)ccc1/C=C/C(=O)O`, in data set [7], the Papp A→B amounted to 15 ×10⁻⁶ cm/s. Moreover, the results for the concentration for a half-maximal effect (EC50) with Hepatitis C virus [6] and in the data set on Hepatitis C virus [3] were 40 nM and 13 nM, respectively. For the same compound, in data set [4], the half-life at 2 µM stood at 2.78 h.

`CCOc1nc(NC(=O)C2(NC(=O)c3ccc4c(C5CCCC5)c(-c5ccccn5)n(C)c4c3)CCC2)cnc1/C=C/C(=O)O` showed a concentration at 2 h in data set [8] of 200 nM. Further, the half-life at 2 µM in [1] came out at 0.617 h; in [4], 1.78 h. The logD in data set [2] and in data set [5] was 3.1 each time. Further, the EC50 in the data set with Hepatitis C virus [3] was 13 nM. The concentration at 1 h in data set [9] came to 500 nM.

On to `CCOc1nc(NC(=O)C(C)(C)NC(=O)c2ccc3c(C4CCCC4)c(-c4ncc(Cl)cn4)n(C)c3c2)ccc1/C=C/C(=O)O`, for which, in data set [2], the logD was 4. Moreover, the EC50 was determined as 7 nM with Hepatitis C virus [6] and 6 nM in the data set with Hepatitis C virus [3].

Consider `CCOc1nc(NC(=O)C(C)(C)NC(=O)c2ccc3c(C4CCCC4)c(-c4ccc(Cl)cn4)n(C)c3c2)cnc1/C=C/C(=O)O`, for which, in data set [8], the concentration at 2 h amounted to 660 nM. Also, the half-life at 2 µM in data set [1] is over 5 h; in [4] it was 4.6 h. Also, the logD in [2] and in data set [5] was 2.6 each time. In addition, the EC50 in the data set on Hepatitis C virus [3] came out at 6 nM. This compound also returned a Cmax in data set [10] of 660 nM.

On to `CCOc1nc(NC(=O)C2(NC(=O)c3ccc4c(C5CCCC5)c(-c5ncc(Cl)cn5)n(C)c4c3)CCC2)ccc1/C=C/C(=O)O`, for which the Papp A→B in data set [7] stood at 15 ×10⁻⁶ cm/s. For the same compound, the logD in data set [2] is over 5.9. For the same compound, the values for the EC50 with Hepatitis C virus [6] and in the data set on Hepatitis C virus [3] were 24 nM and 13 nM, respectively. In addition, the half-life at 2 µM in data set [4] turned out to be 1.1 h.

As for `CCOc1nc(NC(=O)C2(NC(=O)c3ccc4c(C5CCCC5)c(-c5ncc(Cl)cn5)n(C)c4c3)CCCC2)ccc1/C=C/C(=O)O`, in data set [2], the logD was over 6.2. Further, the EC50 in the data set with Hepatitis C virus [6] is 14 nM; with Hepatitis C virus [3], 3 nM.
